Source: patent US6379670B1, “Methods for treatment of multiple sclerosis using peptide analogs of human myelin basic protein” (Neurocrine Biosciences, Inc., priority 1994, dated 2002)
Several values for one entry are separate records, joined by “and”; a condition that tells them apart may be missing. Equal entries are not always repeated. Non-standard residues stand in square brackets, D forms with d. No end group written: not given here.

Tests used:
[1] = tested on: Dr2b-restricted T cell clone 5F6; experiment: Cytokine production (TNF-α, IFN-γ) by T cell clone 5F6, EIA; format: cell-based, human
Method: As discussed in detail below, the production of cytokines may also be assessed. In particular, TNF-α and IFN-γ production are especially interesting. These pro-inflammatory cytokines are thought to play a role in the pathogenesis of the disease. Briefly, T cell clone is incubated in the presence of stimulating MBP peptide and peptide analog or control peptide (SWM) or medium only. After a 24 hour incubation, the levels of TNF-α and IFN-γ in the supernatant are determined using commercially available EIA kits (Endogen, Cambridge, Mass.).
The ability of the peptide analog ligand to influence cytokine production was next measured. The Dr2b-restricted T cell clone 5F6 was incubated in the presence of 3 μM MBP peptide with either 10 μM of NBI-5788 (SEQ ID NO:7) or SWM or medium only. As a control, cells were cultured in the presence of medium alone. After 24 hours, supernatants were removed and the levels of tumor necrosis factor alpha (TNF-α) and interferon-y (IFN-γ) determined using commercially available EIA kits.

[2] = tested on: draining lymph node T cells of SJL mice; experiment: Induction of Th2 response in SJL mice, ex vivo lymph node cell proliferation; design: species or system mouse
Method: SJL/J female mice (3 per group) were injected weekly on days 0, 7, 14 and 21 subcutaneously with 20 mg/kg of NBI-5788 in the flanks. On day 28, the mice were sacrificed, the draining lymph node removed, a single cell suspension was made and the ability of the cells to proliferate in response to 25 μM NBI-5788 was determined. The data, shown in FIG. 28, represent the mean of triplicate wells.

[3] = tested on: peripheral blood cells of MS patients; experiment: Frequency of APL-responsive peripheral blood T cells after dosing of MS patients (split-well); format: in vivo, human
Method: Patients received either 10 or 20 mg of APL NBI-5788 (weekly for four weeks). Peripheral blood cells were collected from four patients approximately one year after dosing, as well as from 14 MS patients who had not received the APL and from two normal, healthy volunteers. The frequency of response to the peptide was determined using the split-well technique. Cells were seeded in 48 wells/plate, as well as 12 control wells without antigenic stimulation, at a density of 1×10^5 cells/well. Cells were set up in IMDM+10% human plasma pool+penicillin/streptomycin 100 U/ml+gentamycin 50 μg/ml +2 mM L-glutamine (or complete media, CM). Peptide antigen (25 μg) was added and then included for no more than one feeding with media. At day 12, the medium was changed to CM without IL-2. Two days later, the split-wells were established. The wells were resuspended with a multichannel pipetor, 100 μl of the cell suspension was transferred to adjacent wells on a new plate (daughter plate) and mixed with 100 μl of media containing 1×10^5 antigen presenting cells (peripheral blood lymphocytes, PBL irradiated with 3000 R in CM with or without antigen; 25 μg/ml). After 48 hours of culturing, 100 μl of supernatant was removed from the daughter plate for later cytokine determination and stored at -70° C.
For the proliferation assay, ^3H-thymidine (0.5 μCi) was added to the daughter plate and the plates reincubated for an additional 8 hours. The wells were then harvested onto filter mats and the level of ^3H-thymidine incorporation determined using beta scintillation. Counts greater than three-fold over background were considered positive.

## MBP(83-99) (83E>a, 84N>K, 89F>L, and 91K>A) ([dA]KPVVHLFANIVTPRTP) [NBI-5788]
[1]; 10 μM peptide with 3 μM MBP peptide, to approximately levels with medium only
  effect on MBP-stimulated production of TNF-α and IFN-γ: dramatically inhibited the production of both pro-inflammatory cytokines
[1]; even at concentrations of 50 μM (data not shown)
  stimulation of cytokine production over background by the analog itself: None
[2]; 20 mg/kg subcutaneously on days 0, 7, 14 and 21, ex vivo proliferation to 25 μM NBI-5788, FIG. 28
  immune response induced by repeated dosing: induces a Th2 response
[2]; four doses at weekly intervals
  response with successive weekly doses: stronger response after each subsequent dose
[3]; 10 mg (n = 1)
  Percent Reactivity (frequency of APL NBI-5788-reactive T cells): 23%
[3]; 10 mg weekly for four weeks, about one year after dosing
  frequency of APL responsive wells (SI>3), individual patient: 23%
[3]; 20 mg (n = 3)
  Percent Reactivity (frequency of APL NBI-5788-reactive T cells): 39 ± 18%
[3]; 20 mg weekly for four weeks, about one year after dosing, listed as APL
  frequency of APL responsive wells (SI>3), individual patients: 11% and 32% and 72%
[3]; human, in vivo
  APL specific lines from treated patients cross reacting with native MBP (83-99): 6/31
  APL specific lines from treated patients reacting with whole MBP: 4/31
